Laboratory results: the supplement of paper PMC3493320

system: NCI-H295R; assay: IC50 (antiproliferative, ATP content); conditions: 48 h
How it was run: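 Cell viability of adrenocortical carcinoma cells was assessed as ATP by CellTiter-Glo luminescence. Cells at 1500 per well in 1536-well plates, in serum-free DMEM with ITS, received compounds by pin transfer at 8 final concentrations (0.6 nM–46 µM) after overnight culture and were then held 48 h at 37 °C, 5% CO2. IC50 was calculated by logistic fitting against vehicle and positive-control wells, compounds with no concentration response being recorded as above the top dose.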

| IC50 | Compound |
| --- | --- |
| > 46 µM | NS(=O)(=O)c1cc2c(cc1C(F)(F)F)NC(Cc1ccccc1)NS2(=O)=O (stereo unspecified) |
| > 46 µM | CC(=O)Nc1ccc(OC(=O)c2ccccc2O)cc1 |
| > 46 µM | CCN1CC(CCN2CCOCC2)C(c2ccccc2)(c2ccccc2)C1=O.Cl (stereo unspecified) |
| > 46 µM | CC(NNC(=O)c1ccccc1)c1ccccc1 (stereo unspecified) |
| > 46 µM | O=C(CCN1CCN(CCO)CC1)N1c2ccccc2Sc2ccc(C(F)(F)F)cc21 |
| > 46 µM | COc1ccc(-c2noc(CC(=O)O)c2-c2ccc(OC)cc2)cc1 |
| > 46 µM | O=[C@](O)[C@@H]2CC1=C(CN2C([C@H](C)N[C@@H](CCC3=CC=CC=C3)[C@](OCC)=O)=O)C=C(OC)C(OC)=C1.Cl |
| > 46 µM | CC/C(=C(/CC)c1ccc(OP(=O)(O)O)cc1)c1ccc(OP(=O)(O)O)cc1 |
| > 46 µM | CCN(CC)CCOC(=O)C(Cc1cccc2ccccc12)CC1CCCO1.O=C(O)C(=O)O (stereo unspecified) |
| > 46 µM | CS(=O)(=O)Nc1cc2\C=C(/Nc2cc1)C(=O)N3CCN(CC3)c4ncccc4NC(C)C |
| > 46 µM | CCc1ccc(CCOc2ccc(CC3SC(=O)NC3=O)cc2)nc1.Cl (stereo unspecified) |
| > 46 µM | Cl.Clc1ccc(Cn2c(CN3CCCC3)nc3ccccc32)cc1 |
| > 46 µM | CC1=Nc2ccc(Cl)cc2S(=O)(=O)N1 |
| > 46 µM | CCCCC(CC)COC(=O)c1ccccc1O (stereo unspecified) |
| > 46 µM | CCOc1ccccc1OCCN[C@H](C)Cc1ccc(OC)c(S(N)(=O)=O)c1.Cl |
| > 46 µM | C[C@H]1c2cccc(O)c2C(=O)C2=C(O)[C@]3(O)C(=O)C(C(N)=O)=C(O)[C@@H](N(C)C)[C@@H]3[C@@H](O)[C@@H]21.Cl |
| > 46 µM | Cc1onc(-c2ccccc2Cl)c1C(=O)N[C@@H]1C(=O)N2[C@@H]1SC(C)(C)[C@@H]2C(=O)[O-].[Na+] |
| > 46 µM | O=C(c1cc2ccccc2o1)N1CCN(Cc2ccccc2)CC1 |
| > 46 µM | O=C1C[C@@H]([C@](N[C@@H](CC3=CNC=N3)C(N2[C@]([H])(C(N)=O)CCC2)=O)=O)NC(N1C)=O |
| > 46 µM | COC(=O)c1ccccc1O |
| > 46 µM | CN(C)CCN1C(=O)c2ccccc2N(C)c2ccccc21.Cl |
| > 46 µM | O=C1OC(c2ccc(O)cc2)(c2ccc(O)cc2)c2ccccc21 |
| > 46 µM | CC1=C(C)C(=O)C(C(CCCCCC(=O)O)c2ccccc2)=C(C)C1=O (stereo unspecified) |

Further lines, the compound ahead of its results:

| Compound | IC50 |
| --- | --- |
| CN1C(CCl)Nc2cc(Cl)c(S(N)(=O)=O)cc2S1(=O)=O (stereo unspecified) | > 46 µM |
| CCC(Cc1c(I)cc(I)c(N)c1I)C(=O)O (stereo unspecified) | > 46 µM |
| COc1ccc2c(c1OC)C(=O)O[C@H]2[C@@H]1c2cc3c(cc2CCN1C)OCO3 | > 46 µM |
| CC(=O)Nc1c(I)c(C(=O)N[C@H]2C(O)O[C@H](CO)[C@@H](O)[C@@H]2O)c(I)c(N(C)C(C)=O)c1I (stereo partly specified) | > 46 µM |
| CC1NCCOC1c1ccccc1.Cl (stereo unspecified) | > 46 µM |
| CS(=O)(=O)OCCCCOS(C)(=O)=O | > 46 µM |
| CCCCC[C@@H](O)C1C(=O)OC(C)C(O)/C=C/C=C/C=C/C=C/C=C(\C)C(O)C(O)C(O)C[C@H](O)C[C@H](O)C[C@H](O)C[C@H](O)C[C@@H]1O (stereo partly specified) | > 46 µM |
| CCCCCCCCCCCCOCCCN | > 46 µM |
| C[C@]12C=CC(=O)C=C1[C@@H](F)C[C@@H]1[C@@H]2[C@@H](O)C[C@@]2(C)[C@H]1CC[C@]2(O)C(=O)CO | > 46 µM |
| O=[N+]([O-])C(Br)(CO)CO | > 46 µM |
| CC(C)c1cccc(C(C)C)c1O | > 46 µM |
| N=C(N)NCC1COC2(CCCCC2)O1.N=C(N)NCC1COC2(CCCCC2)O1.O=S(=O)(O)O (stereo unspecified) | > 46 µM |
| CN(C)CCc1ccc(O)cc1 | > 46 µM |
| OC1=CC(\C=C(C#N)/C#N)=CC(O)=C1O | > 46 µM |
| COC(=O)C(c1ccccc1)C1CCCCN1.Cl (stereo unspecified) | > 46 µM |
| CN1[C@@H]2CC[C@H]1C[C@@H](OC(=O)c1cc(Cl)cc(Cl)c1)C2 | > 46 µM |
| Cc1ccccc1-n1c(CF)nc2ccc(N)cc2c1=O | > 46 µM |
| COc1cc(C(=O)NCCCCCC(=O)O)cc(OC)c1OC | > 46 µM |
| Cc1ccccc1-n1c(C)nc2ccccc2c1=O | > 46 µM |
| Nc1c2c(nc3ccccc13)CCCC2 | > 46 µM |
| O=C(CS(=O)C(c1ccccc1)c1ccccc1)NO (stereo unspecified) | > 46 µM |
| COc1cc(C)nc(-n2nc(C)cc2OC)n1 | > 46 µM |
| NCc1cccnc1 | > 46 µM |
| O=C(O[C@@H]2C[C@H](CC3)[N@@+](C)(C)[C@H]3C2)C(CO)C1=CC=CC=C1.[Br-] (stereo partly specified) | > 46 µM |
| COc1cc(C(=S)N2CCOCC2)cc(OC)c1OC | > 46 µM |
| CCN(CC)CCOCCOC(=O)C(CC)(CC)c1ccccc1.O=C(O)CC(O)(CC(=O)O)C(=O)O | > 46 µM |
| O=S(=O)([O-])CCCS(=O)(=O)[O-].[Na+].[Na+] | > 46 µM |
| C=CCN=C=S | > 46 µM |
